Data taken from PMC7961093, “Insights into the dual cleavage activity of the GH16 laminarinase enzyme class on β-1,3 and β-1,4 glycosidic bonds” (The Journal of Biological Chemistry, 2021).

Columns and labels:
TpLam = target: T1, TpLam (Thermotoga petrophila, UniProt A5IL44); experiment: capillary zone electrophoresis of hydrolysis products; format: biochemical; settings: 5 mM substrate, 10 μM enzyme, 70 °C, overnight
T1 construct: gene Tpet_0899; purified preparation
T1 sequence (A5IL44 18-641): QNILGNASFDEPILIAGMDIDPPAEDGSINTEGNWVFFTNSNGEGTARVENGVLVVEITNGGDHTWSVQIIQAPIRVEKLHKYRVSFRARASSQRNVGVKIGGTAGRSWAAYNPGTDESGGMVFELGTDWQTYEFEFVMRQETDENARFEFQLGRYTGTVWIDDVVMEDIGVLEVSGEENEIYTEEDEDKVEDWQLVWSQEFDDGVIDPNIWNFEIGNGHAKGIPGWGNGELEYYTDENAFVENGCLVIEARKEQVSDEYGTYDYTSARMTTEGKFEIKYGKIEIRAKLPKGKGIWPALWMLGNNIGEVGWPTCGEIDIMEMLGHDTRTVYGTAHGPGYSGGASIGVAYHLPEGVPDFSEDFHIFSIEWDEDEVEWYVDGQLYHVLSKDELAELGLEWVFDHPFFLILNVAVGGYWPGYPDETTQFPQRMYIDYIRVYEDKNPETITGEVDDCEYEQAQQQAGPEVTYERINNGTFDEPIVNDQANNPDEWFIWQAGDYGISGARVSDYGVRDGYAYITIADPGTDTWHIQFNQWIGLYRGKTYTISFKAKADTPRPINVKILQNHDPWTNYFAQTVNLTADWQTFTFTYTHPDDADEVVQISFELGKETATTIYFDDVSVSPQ

SCLam = target: T2, SCLam (soil metagenome, UniProt Z9RH19THY1, E147S); experiment: isothermal titration calorimetry; format: binding; settings: 20 mM sodium phosphate pH 6.5, 20 °C
T2 construct: monomer in asymmetric unit
T2 sequence (Z9RH19THY1 4-269 E147S): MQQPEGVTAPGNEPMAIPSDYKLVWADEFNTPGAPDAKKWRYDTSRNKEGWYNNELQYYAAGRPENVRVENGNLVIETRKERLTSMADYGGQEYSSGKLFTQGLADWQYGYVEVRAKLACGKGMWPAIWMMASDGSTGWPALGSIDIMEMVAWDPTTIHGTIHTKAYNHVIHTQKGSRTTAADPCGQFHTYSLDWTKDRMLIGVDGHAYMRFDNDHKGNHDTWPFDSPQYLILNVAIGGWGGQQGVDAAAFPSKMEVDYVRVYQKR
Description: isothermal titration calorimetry on SCLam

[1] = sequential binding model, site 1 (negative subsites)

SMILES	Ka × 10^4 (M^-1) (SCLam; single-site model)	Ka × 10^4 (M^-1) (SCLam; [1])	further results
OC[C@H]1O[C@@H](O[C@H]2[C@H](O)[C@@H](O)[C@H](O[C@H]3[C@H](O)[C@@H](O)[C@H](O[C@H]4[C@H](O)[C@@H](O)[C@H](O[C@H]5[C@H](O)[C@@H](O)C(O)O[C@@H]5CO)O[C@@H]4CO)O[C@@H]3CO)O[C@@H]2CO)[C@H](O)[C@@H](O)[C@@H]1O (some centres unmarked) [C5, cellopentaose]			capillary zone electrophoresis of hydrolysis products (TpLam): we also evaluated the activity of the TpLam from Thermotoga petrophila
OC[C@H]1O[C@@H](O[C@H]2[C@H](O)[C@@H](O)[C@H](O[C@@H]3[C@@H](O)[C@H](O[C@H]4[C@H](O)[C@@H](O)C(O)O[C@@H]4CO)O[C@H](CO)[C@H]3O)O[C@@H]2CO)[C@H](O)[C@@H](O)[C@@H]1O (stereo partly drawn) [BGC, 1,3-β-D-cellobiosyl-cellobiose]	0.59 (±0.07) × 10^4		
OC[C@H]1O[C@@H](O[C@@H]2[C@@H](O)[C@H](O[C@@H]3[C@@H](O)[C@H](O[C@@H]4[C@@H](O)[C@H](O[C@@H]5[C@@H](O)[C@H](O[C@H]6[C@H](O)[C@@H](CO)OC(O)[C@@H]6O)O[C@H](CO)[C@H]5O)O[C@H](CO)[C@H]4O)O[C@H](CO)[C@H]3O)O[C@H](CO)[C@H]2O)[C@H](O)[C@@H](O)[C@@H]1O (some centres unmarked) [L6, laminarihexaose]		17.8 (±2.2) × 10^4	
OC[C@H]1O[C@@H](O[C@H]2[C@H](O)[C@@H](O)[C@H](O[C@H]3[C@H](O)[C@@H](O)[C@H](O[C@H]4[C@H](O)[C@@H](O)[C@H](O[C@H]5[C@H](O)[C@@H](O)[C@H](O[C@H]6[C@H](O)[C@@H](O)C(O)O[C@@H]6CO)O[C@@H]5CO)O[C@@H]4CO)O[C@@H]3CO)O[C@@H]2CO)[C@H](O)[C@@H](O)[C@@H]1O (some centres unmarked) [C6, cellohexaose]		9.7 (±0.56) × 10^4	
OC[C@H]1O[C@@H](O[C@H]2[C@H](O)[C@@H](O)[C@H](O[C@H]3[C@H](O)[C@@H](O)[C@H](O[C@H]4[C@H](O)[C@@H](CO)OC(O)[C@@H]4O)O[C@@H]3CO)O[C@@H]2CO)[C@H](O)[C@@H](O)[C@@H]1O (stereo partly drawn) [BGB, 1,3-β-D-cellotriosyl-glucose]	66.7 (±1.4) × 10^4		
